Key:
TTR [1] = assay: TTR editing in HepG2 cells transfected with Spy Cas9 mRNA and dgRNAs (Table 6); format: cell-based, human; conditions: HepG2 cells co-transfected with Spy Cas9 mRNA (SEQ ID NO:2) and dgRNAs
How it was run: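 Percent editing is the share of sequencing reads at the TTR target locus that carry insertions, deletions or substitutions, measured by Illumina amplicon sequencing aligned to hg38. Samples came from HepG2 cells lipofected first with 100 ng Cas9 mRNA and then with dual-guide RNA (25 nM crRNA/tracer), collected 24–72 h later.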

TTR [2] = assay: TTR editing in primary human hepatocytes transfected with Spy Cas9 protein (RNP) loaded with dgRNAs (Table 8); format: cell-based; conditions: dgRNA transfected with Spy Cas9 protein (RNP)
How it was run: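 Primary human hepatocytes were lipofected (RNAiMAX) with RNP of Spy Cas9 (10 nM) plus pre-annealed crRNA (10 nM) and trRNA (10 nM) and harvested 24, 48 or 72 h later. Target-site amplicons were sequenced on Illumina MiSeq and aligned to hg38; percent editing = reads with indels or substitutions over total reads.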

off-target genomic sites = assay: Off-target oligo insertion based assay in HEK293_Cas9 cells, dgRNAs and sgRNAs (Tables 23, 24); format: cell-based, human; conditions: Table 23; TTR dgRNAs in HekCas9 cells, oligo insertion based assay
How it was run: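 In HEK293 cells constitutively expressing Spy Cas9, crRNA (15 nM) plus trRNA (15 nM), or modified sgRNAs, were lipofected with donor oligo (10 nM). Genomic DNA was collected at 24 h, and oligo-insertion libraries were sequenced on MiSeq/HiSeq to map potential off-target cleavage sites.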

| Sequence | Avg % Deletion (TTR [1]) [%] | Avg % Edit (TTR [1]) [%] | Avg % Insert (TTR [1]) [%] | Avg % Deletion (TTR [2]) [%] | Avg % Edit (TTR [2]) [%] | Avg % Insert (TTR [2]) [%] | # Sites (off-target integration sites detected) (off-target genomic sites) |
| --- | --- | --- | --- | --- | --- | --- | --- |
| AAAGUUCUAGAUGCUGUCCG (tested as dual guide RNA, chemistry not given here) [CR003346] | 0.05 | 0.13 | 0.07 | 1.84 | 4.11 | 2.27 | 0 |
| AAAUAGACACCAAAUCUUAC (tested as dual guide RNA, chemistry not given here) [CR003366] | 8.49 | 54.69 | 46.20 | 4.79 | 42.74 | 37.95 | 1 |
| AAGUGCCUUCCAGUAAGAUU (tested as dual guide RNA, chemistry not given here) [CR003368] | 3.22 | 51.55 | 48.34 | 1.00 | 34.83 | 33.83 | 2 |
| ACACAAAUACCAGUCCAGCA (tested as dual guide RNA, chemistry not given here) [CR003339] | 55.84 | 68.21 | 12.37 | 36.21 | 45.06 | 8.85 | 3 |
| ACGUGUCUUCUCUACACCCA (tested as dual guide RNA, chemistry not given here) [CR005302] | 2.29 | 33.21 | 30.93 | 0.97 | 48.29 | 47.32 | 1 |
| ACUGAGGAGGAAUUUGUAGA (tested as dual guide RNA, chemistry not given here) [CR003363] | 14.07 | 42.65 | 28.58 | 6.18 | 27.65 | 21.47 | 4 |
| AGACACCAAAUCUUACUGGA (tested as dual guide RNA, chemistry not given here) [CR003367] | 21.27 | 45.55 | 24.28 | 15.13 | 31.19 | 16.06 | 1 |
| AGCCUUUCUGAACACAUGCA (tested as dual guide RNA, chemistry not given here) [CR003351] | 25.57 | 57.54 | 31.98 | 16.36 | 40.28 | 23.92 | 1 |
| AGGCAGUCCUGCCAUCAAUG (tested as dual guide RNA, chemistry not given here) [CR003348] | 21.40 | 38.44 | 17.04 | 9.44 | 23.18 | 13.74 | 3 |
| AGUCCCUCAUUCCUUGGGAU (tested as dual guide RNA, chemistry not given here) [CR003392] | 0.33 | 14.64 | 14.32 | 0.14 | 10.07 | 9.93 | 0 |
| AGUGAGUCUGGAGAGCUGCA (tested as dual guide RNA, chemistry not given here) [CR003359] | 15.65 | 64.44 | 48.79 | 8.51 | 59.47 | 50.96 | 6 |
